Assay results from patent US20240148701A1, “WOULD HEALING METHODS” (The University of Sydney, priority 2021, published 2024).

Legend:
HUVECs = assay: Cell migration by scratch assay in HUVECs (CL 316,243); type: cell-based, human
[1] = test system: endothelial colony forming cells (ECFC); assay: Tubule formation in patient-derived endothelial colony forming cells; type: cell-based, human
Protocol: Human umbilical vein endothelial cells (HUVECs; Lonza C2519AS, pooled source, Australia) were grown using standard cell culture conditions in endothelial cell growth medium (EGM Plus®, containing 2% fetal bovine serum, Lonza, Australia). All cells were regularly confirmed to be mycoplasma negative. Two different pooled source cell lines were used in experiments and all were used within passages 2-4. Human adult dermal microvascular endothelial cells were also obtained from Lonza (CC-2543, Lonza Australia) and cultured as above but using endothelial growth medium 2-MV bulletkit. Endothelial colony forming cells (ECFCs) were derived from the peripheral blood of participants in the BioHEART study. This registered study (ACTRN12618001322224) complies with the Declaration of Helsinki and the study protocol and design has been approved by the Northern Sydney Local Health District Human Research Ethics Committee (HREC/17/HAWKE/343). […]
Once they were ˜70% confluent, cells were re-suspended in diluted EGM Plus® (1:3) and plated on reduced-growth factor extracellular matrix (15 mg/ml, Cultrex, Trevigen, USA) at a density of 1.5×10^4 cells/cm^2. […] Cells were incubated in an EVOS FL Auto Imaging system for 16 hours and tubule formation recorded every hour. Optimal tube formation occurred at the 8-hour timepoint; tubule number at this point was quantified manually using NIH Image J software. […]

eNOS = eNOS immunoprecipitation, glutathionylation of eNOS in ischemic hind limb; type: in vivo, mouse; details: ischemic limbs of type 1 diabetes mice
Protocol: Gastronemius protein (500 μg) extracted as above was used for co-immunoprecipitation with eNOS. Protein G dynabeads (1.5 mg/ml, 2.8 μm beads, Thermofisher Scientific, Australia) were covalently conjugated with mouse anti-eNOS antibody (BD Biosciences, 1 μg) using bis(sulfosuccinimidyl) suberate amine-amine cross-linking solution (5 mM; ThermoFisher Scientific, Australia). Beads were washed with PBS and incubated with protein lysate overnight at 4° C. IgG controls were prepared using anti-IgG antibodies conjugated to dynabeads using an identical process. Protein was eluted from beads using LDS buffer, denatured and run in non-reduced conditions on 8% Bis-Tris gels using SDS-PAGE and transferred onto polyvinylidene fluoride membrane as above. Expression of oxidized glutathione was detected using mouse anti-glutathione antibody (Virogen, 1:1000). eNOS was detected using rabbit anti-eNOS (Cell Signaling Technology, 1:1000, Australia). Odyssey detection system was used to visualize bands as above.

C57BL6/J mice = assay: Hind limb ischemia in type 2 diabetes model, laser Doppler perfusion; type: in vivo, mouse; details: type 2 diabetes mice
Protocol: Male C57BL6/J mice 8-10 weeks of age were obtained from Australian BioResources (Moss Vale, NSW) with 12 hour light/dark cycles and free access to water and mouse chow (Specialty Feeds, Australia). Mice were housed in groups of 2-5 in standard cages within a Physical Containment Level 2 laboratory. For in vivo angiogenesis 16 mice underwent the femoral vascular ligation model. Mice were anaesthetized with 1.5-2% isoflurane vaporized in oxygen and constant body temperature was maintained. All mice received pre-operative and 24-hour post-operative analgesia (carprofen, 5 mg/kg s.c). A small incision (˜15 mm) was made in the hind limb skin directly over the femoral vasculature. A portion of the femoral artery and vein, distal to the origin of the profunda femoris artery and proximal to the saphenous artery, were isolated and two ligations were performed using 6-0 silk sutures. The femoral artery and vein were then excised between the ligation sites 27. […] Hind limb blood flow was assessed prior to ligation (baseline) and immediately after undergoing hind limb ischemia, with subsequent imaging at day 3, 7, 10, 14, 21 and 28 post hind limb ischemia. […] The rate of reperfusion in the hind limb was calculated as a ratio of blood flow in the ischemic versus non-ischemic contralateral limb. […]

C[C@H](Cc1ccc2c(c1)OC(C(=O)[O-])(C(=O)[O-])O2)NC[C@H](O)c1cccc(Cl)c1.[Na+].[Na+] [CL 316,243]
closure of denuded zone (HUVECs; by 24 hours at the higher concentrations): > 90%
migration of HUVECs into the denuded zone (HUVECs; scratch assay over 24 hours, 1-1000 ng/ml, vs vehicle control): significantly increased migration
angiogenesis (tubule formation) in ECFCs ([1]; ECFCs from patients with significant coronary artery disease, 100 ng/ml): effectively stimulate angiogenesis
angiogenesis in ECFCs ([1]; cells from relatively healthy participants): did not occur
glutathionylation of eNOS (eNOS): largely abolished
reperfusion post-ischemia (C57BL6/J mice): augmented reperfusion
